Measured values reported in patent publication US9611232B2, “Oxazolidinone and imidazolidinone compounds” (Hoffmann-La Roche Inc., priority 2012, dated 2017).
“And” between values parts separate entries of the source, which are not always exact repeats. Equal values may be shown once.

What follows are molecules tested against KCa3.1 (Homo sapiens (Human), UniProt O15554) (assay: Thallium influx assay (FLIPR, FluxOR)). Settings: CHOK1 cells over-expressing KCa3.1; thallium (3.3 mM)/ionomycin (1 μM) activation.
Format: cell-based
Description: The thallium influx assay was performed with CHOK1 cells over-expressing KCa3.1 obtained from Evotec and maintained in MEM Alpha medium supplemented with 10% fetal bovine serum, 100 U/ml penicillin/[…] streptomycin and 250 μg/ml G418.
CHOK1 wild type cells were passaged using F12/Ham's medium supplemented with 10% fetal bovine serum, 2 mM glutamine, 100 U/ml penicillin/[…] streptomycin. All cells were cultured in T175 flasks.
Before the day of the assay, cells were harvested from culture flasks using standard trypsin digestion. Cells were counted and densities adjusted and dispensed into 384-well poly-D-lysine coated plates at 7500 […], assay plates were incubated overnight in CO2 incubator at 37° C.
The following day, growth media was removed followed by the addition of 25 ul/well of FluxOR™ (Invitrogen) loading dye in a gluconate based assay buffer (135 mM NaGluconate,
2.5 mM Kgluconate, 2 mM CaNO3, 1 mM MgNO3, 10 mM HEPES (acid), 5 mM glucose pH adjusted to 7.4). Assay plates were incubated for 1 hour at 37° C. The loading dye was then replaced with gluconate assay buffer containing probenecid.
Compounds diluted in gluconate buffer were transferred into the assay plates (25 μl/well) followed by incubation for 20 minutes at room temperature. The assay plates were then transferred to a Fluorometric Imaging Plate Reader (FLIPR), a baseline was read for twenty second capture, followed by the addition of 25 μl/well of channel activation solution in gluconate buffer—for KCa3.1 cells thallium (3.3 mM)/ionomycin(1 μM) was used and for the wild type, ionomycin only, then fluorescence was monitored for another 90 seconds.

Question: How did the IC50 turn out when COC(=O)CN1C(=O)OC(c2ccc(F)cc2)(c2ccc(F)cc2)[C@@H]1c1ccccc1F [Example 21, (S)-methyl 2-(4-(2-fluorophenyl)-5,5-bis(4-fluorophenyl)-2-oxooxazolidin-3-yl)acetate] was run?
Answer: 650 nM

Question: Which IC50 does the source give for NC(=O)CN1C(=O)OC(c2ccc(F)cc2)(c2ccc(F)cc2)[C@@H]1c1ccccc1 [Example 1, (S)-2-(5,5-bis(4-fluorophenyl)-2-oxo-4-phenyloxazolidin-3-yl)acetamide] here?
Answer: 860 nM

Question: With CCOC(=O)CN1C(=O)OC(c2ccccc2)(c2ccccc2)[C@@H]1c1ccccc1F [Example 16, [(S)-4-(2-Fluoro-phenyl)-2-oxo-5,5-diphenyl-oxazolidin-3-yl]-acetic acid ethyl ester] as the molecule, how does the IC50 read?
Answer: 1000 nM

Question: Which IC50 does the source give for NC(=O)CN1C(=O)OC(c2cccc(F)c2)(c2cccc(F)c2)[C@@H]1c1ccccc1 [Example 3, 2-[(S)-5,5-Bis-(3-fluoro-phenyl)-2-oxo-4-phenyl-oxazolidin-3-yl]-acetamide] here?
Answer: 630 nM

Question: With Cc1coc(CN2C(=O)O[C@@H](c3cccc(C(F)(F)F)c3)[C@H]2c2ccc(F)cc2)n1 (racemic) [Example 40] as the molecule, how does the IC50 read?
Answer: 6900 nM

Question: NC(=O)CN1C(=O)OC(c2ccc(F)cc2)(c2ccc(F)cc2)C1c1c(F)cccc1F (stereo not shown) [Example 8, 2-[4-(2,6-Difluoro-phenyl)-5,5-bis-(4-fluoro-phenyl)-2-oxo-oxazolidin-3-yl]-acetamide] was tested. Which IC50 did it give?
Answer: 7150 nM

Question: For NC(=O)CN1C(=O)OC(c2cccc(F)c2)(c2cccc(F)c2)[C@@H]1c1ccccc1F [Example 15, 2-[(S)-5,5-Bis-(3-fluoro-phenyl)-4-(2-fluoro-phenyl)-2-oxo-oxazolidin-3-yl]-acetamide], which IC50 is on record?
Answer: 700 nM

Question: Which IC50 does the source give for CCOC(=O)CN1C(=O)O[C@@H](c2ccc(F)cc2)[C@H]1c1ccc(F)cc1 (racemic) [Example 34] here?
Answer: 6700 nM

Question: For N#CCN1C(=O)OC(c2ccc(F)cc2)(c2ccc(F)cc2)[C@@H]1c1ccccc1F [Example 24, [(S)-5,5-Bis-(4-fluoro-phenyl)-4-(2-fluoro-phenyl)-2-oxo-oxazolidin-3-yl]-acetonitrile], which IC50 is on record?
Answer: 1480 nM

Question: For CCOC(=O)CN1C(=O)OC(c2ccc(F)cc2)(c2ccc(F)cc2)C1c1ccc(F)cc1F (stereo not shown) [Example 4, [4-(2,4-Difluoro-phenyl)-5,5-bis-(4-fluoro-phenyl)-2-oxo-oxazolidin-3-yl]-acetic acid ethyl ester], which IC50 is on record?
Answer: 3140 nM

Question: How did the IC50 turn out when NC(=O)CN1C(=O)OC(c2ccc(F)cc2)(c2ccc(F)cc2)[C@@H]1c1ccccc1Cl [Example 19, 2-[(S)-4-(2-Chloro-phenyl)-5,5-bis-(4-fluoro-phenyl)-2-oxo-oxazolidin-3-yl]-acetamide] was run?
Answer: 740 nM

Question: For NC(=O)CN1C(=O)OC(c2ccc(F)cc2)(c2ccc(F)cc2)[C@@H]1c1ccc(F)cc1F [Example 5, 2-[(S)-4-(2,4-Difluoro-phenyl)-5,5-bis-(4-fluoro-phenyl)-2-oxo-oxazolidin-3-yl]-acetamide], which IC50 is on record?
Answer: 660 nM and 1140 nM

Question: NC(=O)CN1C(=O)OC(c2ccc(F)cc2)(c2ccc(F)cc2)[C@@H]1c1ccccc1F [Example 11, 2-[(S)-5,5-Bis-(4-fluoro-phenyl)-4-(2-fluoro-phenyl)-2-oxo-oxazolidin-3-yl]-acetamide] was tested. Which IC50 did it give?
Answer: 250 nM

Question: For NC(=O)CN1C(=O)NC(c2ccc(F)cc2)(c2ccc(F)cc2)[C@@H]1c1ccccc1 [Example 18, (S)-2-(4,4-bis(4-fluorophenyl)-2-oxo-5-phenylimidazolidin-1-yl)acetamide], which IC50 is on record?
Answer: 3700 nM

Question: How did the IC50 turn out when NC(=O)CN1C(=O)OC(c2ccccc2F)(c2ccccc2F)[C@@H]1c1ccccc1 [Example 2, 2-[(S)-5,5-Bis-(2-fluoro-phenyl)-2-oxo-4-phenyl-oxazolidin-3-yl]-acetamide] was run?
Answer: 830 nM

Question: With O=C1OC(c2ccc(F)cc2)(c2ccc(F)cc2)[C@H](c2ccccc2F)N1Cc1nnc[nH]1 [Example 25, (S)-3-((4H-1,2,4-triazol-3-yl)methyl)-4-(2-fluorophenyl)-5,5-bis(4-fluorophenyl)oxazolidin-2-one] as the molecule, how does the IC50 read?
Answer: 10000 nM

Question: How did the IC50 turn out when NC(=O)CN1C(=O)OC(c2ccc(F)cc2)(c2ccc(F)cc2)C1c1cccnc1 (stereo not shown) [Example 27, 2-(5,5-bis(4-fluorophenyl)-2-oxo-4-(pyridin-3-yl)oxazolidin-3-yl)acetamide] was run?
Answer: 6700 nM

Question: For NC(=O)CN1C(=O)OC(c2ccc(F)c(F)c2)(c2ccc(F)c(F)c2)[C@@H]1c1ccccc1 [Example 28, (S)-2-(5,5-bis(3,4-difluorophenyl)-2-oxo-4-phenyloxazolidin-3-yl)acetamide], which IC50 is on record?
Answer: 770 nM

Question: With NC(=O)CN1C(=O)OC(c2cccc(Cl)c2)(c2cccc(Cl)c2)[C@@H]1c1ccccc1 [Example 29, 2-[(S)-5,5-Bis-(3-chloro-phenyl)-2-oxo-4-phenyl-oxazolidin-3-yl]-acetamide] as the molecule, how does the IC50 read?
Answer: 6700 nM

Question: With CCOC(=O)CN1C(=O)O[C@@H](c2ccc(F)cc2)[C@H]1c1cccc(C(F)(F)F)c1 (racemic) [Example 31, [(4RS,5SR)-5-(4-Fluoro-phenyl)-2-oxo-4-(3-trifluoromethyl-phenyl)-oxazolidin-3-yl]-acetic acid ethyl ester] as the molecule, how does the IC50 read?
Answer: 7540 nM

Question: For NC(=O)CN1C(=O)OC(c2ccc(F)cc2)(c2ccc(F)cc2)C1c1cccc(F)c1 (stereo not shown) [Example 9, 2-(4-(3-fluorophenyl)-5,5-bis(4-fluorophenyl)-2-oxooxazolidin-3-yl)acetamide], which IC50 is on record?
Answer: 6050 nM

Question: CNC(=O)CN1C(=O)OC(c2ccc(F)cc2)(c2ccc(F)cc2)[C@@H]1c1ccccc1F [Example 22, (S)-2-(4-(2-fluorophenyl)-5,5-bis(4-fluorophenyl)-2-oxooxazolidin-3-yl)-N-methylacetamide] was tested. Which IC50 did it give?
Answer: 600 nM

Question: Which IC50 does the source give for CCNC(=O)CN1C(=O)O[C@@H](c2cccc(C(F)(F)F)c2)[C@H]1c1ccc(F)cc1 (racemic) [Example 37] here?
Answer: 4900 nM

Question: How did the IC50 turn out when O=C1O[C@@H](c2cccc(C(F)(F)F)c2)[C@@H](c2ccc(F)cc2)N1Cc1ncco1 (racemic) [Example 39, (4RS,5SR)-4-(4-fluorophenyl)-3-(oxazol-2-ylmethyl)-5-(3-(trifluoromethyl)phenyl)oxazolidin-2-one] was run?
Answer: 11000 nM

Question: With CCOC(=O)CN1C(=O)OC(c2ccc(F)cc2)(c2ccc(F)cc2)[C@@H]1c1ccccc1F [Example 10, [5,5-Bis-(4-fluoro-phenyl)-4-(2-fluoro-phenyl)-2-oxo-oxazolidin-3-yl]-acetic acid ethyl ester] as the molecule, how does the IC50 read?
Answer: 1900 nM

Question: With CCOC(=O)CN1C(=O)OC(c2ccc(F)cc2)(c2ccc(F)cc2)[C@@H]1C(C)(C)C [Example 35, [(S)-4-tert-Butyl-5,5-bis-(4-fluoro-phenyl)-2-oxo-oxazolidin-3-yl]-acetic acid ethyl ester] as the molecule, how does the IC50 read?
Answer: 450 nM

Question: Cc1ccccc1[C@@H]1N(CC(N)=O)C(=O)OC1(c1ccc(F)cc1)c1ccc(F)cc1 [Example 20, 2-[(S)-5,5-Bis-(4-fluoro-phenyl)-2-oxo-4-o-tolyl-oxazolidin-3-yl]-acetamide] was tested. Which IC50 did it give?
Answer: 2200 nM

Question: For NC(=O)CN1C(=O)OC(c2ccc(F)cc2)(c2ccc(F)cc2)C1c1ccccn1 (stereo not shown) [Example 30, 2-(5,5-bis(4-fluorophenyl)-2-oxo-4-(pyridin-2-yl)oxazolidin-3-yl)acetamide], which IC50 is on record?
Answer: 17500 nM

Question: With CCOC(=O)CN1C(=O)O[C@@H](c2cccc(C(F)(F)F)c2)[C@H]1c1cccc(C(F)(F)F)c1 (racemic) [Example 33] as the molecule, how does the IC50 read?
Answer: 1560 nM

Question: Which IC50 does the source give for CCOC(=O)CN1C(=O)OC(c2cccc(F)c2)(c2cccc(F)c2)[C@@H]1c1ccccc1F [Example 14, [(S)-5,5-Bis-(3-fluoro-phenyl)-4-(2-fluoro-phenyl)-2-oxo-oxazolidin-3-yl]-acetic acid ethyl ester] here?
Answer: 3600 nM

Question: With CCOC(=O)CN1C(=O)OC(c2ccccc2F)(c2ccccc2F)[C@@H]1c1ccccc1F [Example 12, [(S)-4,5,5-Tris-(2-fluoro-phenyl)-2-oxo-oxazolidin-3-yl]acetic acid ethyl ester] as the molecule, how does the IC50 read?
Answer: 1100 nM

Question: How did the IC50 turn out when CCOC(=O)CN1C(=O)OC(c2ccc(F)cc2)(c2ccc(F)cc2)[C@@H]1c1ccc(F)cc1 [Example 6, [(S)-4,5,5-Tris-(4-fluoro-phenyl)-2-oxo-oxazolidin-3-yl]acetic acid ethyl ester] was run?
Answer: 1340 nM

Question: N#CCN1C(=O)O[C@@H](c2cccc(C(F)(F)F)c2)[C@H]1c1ccc(F)cc1 (racemic) [Example 38] was tested. Which IC50 did it give?
Answer: 1600 nM

Question: With CCNC(=O)CN1C(=O)OC(c2ccc(F)cc2)(c2ccc(F)cc2)[C@@H]1c1ccccc1F [Example 23, (S)—N-ethyl-2-(4-(2-fluorophenyl)-5,5-bis(4-fluorophenyl)-2-oxooxazolidin-3-yl)acetamide] as the molecule, how does the IC50 read?
Answer: 1960 nM

Question: CCOC(=O)CN1C(=O)OC(c2ccc(F)cc2)(c2ccc(F)cc2)C1c1cccnc1 (stereo not shown) [Example 26, Ethyl 2-(5,5-bis(4-fluorophenyl)-2-oxo-4-(pyridin-3-yl)oxazolidin-3-yl)acetate] was tested. Which IC50 did it give?
Answer: 9200 nM

Question: With CNC(=O)CN1C(=O)O[C@@H](c2cccc(C(F)(F)F)c2)[C@H]1c1ccc(F)cc1 (racemic) [Example 36] as the molecule, how does the IC50 read?
Answer: 6600 nM

These molecules were tested against h KCa3.1 (Homo sapiens (Human), UniProt O15554) (assay: Electrophysiology patch clamp (PatchXpress)). Settings: CHO cells over-expressing h KCa3.1, read-out: IC50 Ephys.
Format: cell-based
Description: Electrophysiology Patch Clamp
Compounds were tested using a PatchXpress® (Model 7000A, Molecular Devices, Union City Calif.) on CHO cells over-expressing h KCa3.1 at ChanTest Corporation, 14656 Neo Parkway, Cleveland, Ohio.

Question: How did the IC50 turn out when NC(=O)CN1C(=O)OC(c2ccc(F)cc2)(c2ccc(F)cc2)[C@@H]1c1ccccc1 [Example 1, (S)-2-(5,5-bis(4-fluorophenyl)-2-oxo-4-phenyloxazolidin-3-yl)acetamide] was run?
Answer: 58 nM

Question: How did the IC50 turn out when NC(=O)CN1C(=O)OC(c2cccc(F)c2)(c2cccc(F)c2)[C@@H]1c1ccccc1F [Example 15, 2-[(S)-5,5-Bis-(3-fluoro-phenyl)-4-(2-fluoro-phenyl)-2-oxo-oxazolidin-3-yl]-acetamide] was run?
Answer: 42 nM

Question: For NC(=O)CN1C(=O)OC(c2ccc(F)cc2)(c2ccc(F)cc2)[C@@H]1c1ccccc1Cl [Example 19, 2-[(S)-4-(2-Chloro-phenyl)-5,5-bis-(4-fluoro-phenyl)-2-oxo-oxazolidin-3-yl]-acetamide], which IC50 is on record?
Answer: 63 nM

Question: Which IC50 does the source give for NC(=O)CN1C(=O)OC(c2ccc(F)cc2)(c2ccc(F)cc2)[C@@H]1c1ccccc1F [Example 11, 2-[(S)-5,5-Bis-(4-fluoro-phenyl)-4-(2-fluoro-phenyl)-2-oxo-oxazolidin-3-yl]-acetamide] here?
Answer: 22 nM
